From patent US10259810B2, “N-sulfonylated pyrazolo[3,4-b]pyridin-6-carboxamides and method of use” (AbbVie S.à.r.l., priority 2015, dated 2019) come the findings set out here.

For assay [1], the target named is T1, ΔF508-CFTR (Homo sapiens, UniProt P13569, DEL508-508).
T1 construct: host or cells: CFBE41o-, doxycycline-inducible
The experiment in a line: CFTR cell surface levels using HRP-tagged ΔF508-CFTR expressing CFBE cells, in the presence of a co-corrector. Format: cell-based. An outline of the steps: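 Chemiluminescent read-out of surface HRP (15 min, dark) after PBS washes. Activity is normalized as 100×(sample−DMSO)/(3 μM co-corrector alone−DMSO).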

The target of assay [2] is T1, ΔF508-CFTR. The experiment in a line: CFTR cell surface levels using HRP-tagged ΔF508-CFTR expressing CFBE cells, intrinsic corrector capacity. The class given is cell-based. The arrangement: % Activation: concentration or dose not given beside the values. An outline of the steps: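 Read-out: chemiluminescent HRP activity of ECL4-HRP-tagged ΔF508-CFTR at the cell surface, 15 min substrate in dark. Normalized as 100×(sample−DMSO)/(positive control−DMSO).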

Setting [3] is: HRP-tagged ΔF508-CFTR CFBE cells, in the presence of 3 μM co-corrector.
Where [4] appears, read: HRP-tagged ΔF508-CFTR CFBE cells, in the presence of 3 μM co-corrector, read-out: EC50.
The mark [5] stands for this setting: HRP-tagged ΔF508-CFTR expressing CFBE41o- cells, compound alone (intrinsic corrector capacity), 20 hours at 33° C.
Where [6] appears, read: HRP-tagged ΔF508-CFTR expressing CFBE41o- cells, compound alone (intrinsic corrector capacity), 20 hours at 33° C., read-out: EC50.

T1 sequence (P13569 with tags, fused parts or gaps DEL508-508): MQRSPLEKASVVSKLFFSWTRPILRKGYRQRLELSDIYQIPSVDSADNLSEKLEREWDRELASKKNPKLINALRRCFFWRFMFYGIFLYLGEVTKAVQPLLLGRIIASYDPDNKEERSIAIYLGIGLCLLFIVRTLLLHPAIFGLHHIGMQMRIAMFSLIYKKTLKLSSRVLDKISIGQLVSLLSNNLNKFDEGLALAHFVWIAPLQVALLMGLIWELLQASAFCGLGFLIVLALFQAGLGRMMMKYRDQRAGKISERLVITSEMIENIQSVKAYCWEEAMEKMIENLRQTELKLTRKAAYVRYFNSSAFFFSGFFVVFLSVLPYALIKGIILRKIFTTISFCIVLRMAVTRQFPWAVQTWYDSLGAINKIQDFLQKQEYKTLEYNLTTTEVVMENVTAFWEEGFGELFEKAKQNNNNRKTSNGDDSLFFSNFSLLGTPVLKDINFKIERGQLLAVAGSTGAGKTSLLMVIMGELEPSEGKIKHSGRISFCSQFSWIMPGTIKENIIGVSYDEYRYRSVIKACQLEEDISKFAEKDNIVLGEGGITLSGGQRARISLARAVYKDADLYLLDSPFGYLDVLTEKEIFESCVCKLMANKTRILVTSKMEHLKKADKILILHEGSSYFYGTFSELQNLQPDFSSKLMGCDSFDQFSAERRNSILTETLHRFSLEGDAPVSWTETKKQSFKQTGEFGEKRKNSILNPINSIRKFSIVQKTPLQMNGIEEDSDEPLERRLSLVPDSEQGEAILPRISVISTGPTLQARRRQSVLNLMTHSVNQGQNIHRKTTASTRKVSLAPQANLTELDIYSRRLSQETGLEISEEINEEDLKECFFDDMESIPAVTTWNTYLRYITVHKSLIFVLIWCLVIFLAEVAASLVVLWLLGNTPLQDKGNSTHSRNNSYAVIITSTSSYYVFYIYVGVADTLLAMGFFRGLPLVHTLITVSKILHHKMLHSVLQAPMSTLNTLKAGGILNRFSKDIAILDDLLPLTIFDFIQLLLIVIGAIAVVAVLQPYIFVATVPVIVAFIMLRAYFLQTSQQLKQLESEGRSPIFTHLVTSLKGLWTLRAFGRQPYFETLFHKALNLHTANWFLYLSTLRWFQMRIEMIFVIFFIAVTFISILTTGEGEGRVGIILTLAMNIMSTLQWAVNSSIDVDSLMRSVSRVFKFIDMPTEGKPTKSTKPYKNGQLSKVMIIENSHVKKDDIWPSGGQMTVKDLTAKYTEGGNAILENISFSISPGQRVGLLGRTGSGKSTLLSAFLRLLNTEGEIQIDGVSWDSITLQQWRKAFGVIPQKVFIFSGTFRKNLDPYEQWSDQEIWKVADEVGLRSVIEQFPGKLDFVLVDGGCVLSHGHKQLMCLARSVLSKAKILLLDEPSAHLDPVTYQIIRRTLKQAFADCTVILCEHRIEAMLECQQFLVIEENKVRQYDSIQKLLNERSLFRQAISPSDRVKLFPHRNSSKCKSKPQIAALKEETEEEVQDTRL

As usually defined, the EC50 is the concentration at which the effect is half-maximal. As to `CC(C)c1nn(-c2ccc(F)cc2)c2nc(C(=O)NS(C)(=O)=O)cc(OCC3COCCN3C(C)C)c12` (stereo not shown) [Compound 310, 1-(4-fluorophenyl)-N-(methanesulfonyl)-3-(propan-2-yl)-4-{[4-(propan-2-yl)morpholin-3-yl]methoxy}-1H-pyrazolo[3,4-b]pyridine-6-carboxamide], the “% Activation” value was 251.5% on ΔF508-CFTR [1] (setting [3]) and 66.84% on ΔF508-CFTR [2] (setting [5]). In addition, the values for the EC50 at ΔF508-CFTR [1] (setting [4]) and on ΔF508-CFTR [2] (setting [6]) were 924 nM and 692 nM, respectively.

For the molecule `COCCS(=O)(=O)NC(=O)c1cc(OCC2CCOCC2)c2c(C3CCC3)nn(-c3ccccc3)c2n1` [Compound 315, 3-cyclobutyl-N-(2-methoxyethanesulfonyl)-4-[(oxan-4-yl)methoxy]-1-phenyl-1H-pyrazolo[3,4-b]pyridine-6-carboxamide], the results for the “% Activation” value at ΔF508-CFTR [1] (setting [3]) and on ΔF508-CFTR [2] (setting [5]) were 315.5% and 154.87%, respectively. Further, the EC50 came to 102 nM on ΔF508-CFTR [1] (setting [4]) and 218 nM on ΔF508-CFTR [2] (setting [6]).

`CC(C)c1nn(-c2ccc(F)cc2)c2nc(C(=O)NS(C)(=O)=O)cc(N3CCC(N(C)C)CC3)c12` [Compound 319, 4-[4-(dimethylamino)piperidin-1-yl]-1-(4-fluorophenyl)-N-(methanesulfonyl)-3-(propan-2-yl)-1H-pyrazolo[3,4-b]pyridine-6-carboxamide]: the entries for the “% Activation” value at ΔF508-CFTR [1] (setting [3]) and on ΔF508-CFTR [2] (setting [5]) were 232% and 34.315%, respectively. Besides, the EC50 on ΔF508-CFTR [1] (setting [4]) is 980 nM; at ΔF508-CFTR [2] (setting [6]), 298 nM.

For the molecule `CS(=O)(=O)NC(=O)c1cc(N2CCC(O)(CC#N)CC2)c2c(C3CCC3)nn(-c3ccccc3)c2n1` [Compound 326, 4-[4-(cyanomethyl)-4-hydroxypiperidin-1-yl]-3-cyclobutyl-N-(methanesulfonyl)-1-phenyl-1H-pyrazolo[3,4-b]pyridine-6-carboxamide], the “% Activation” value at ΔF508-CFTR [1] (setting [3]) is on record as 325.3%; at ΔF508-CFTR [2] (setting [5]), 167.1%. Besides, the figures for the EC50 at ΔF508-CFTR [1] (setting [4]) and on ΔF508-CFTR [2] (setting [6]) were 730 nM and 2380 nM, respectively.

Take `CC(C)c1nn(-c2cccc(N(C)C)c2)c2nc(C(=O)NS(=O)(=O)CCCN=[N+]=[N-])cc(-c3ccc(N=[N+]=[N-])cc3)c12` [Compound 327, 4-(4-azidophenyl)-N-(3-azidopropane-1-sulfonyl)-1-[3-(dimethylamino)phenyl]-3-(propan-2-yl)-1H-pyrazolo[3,4-b]pyridine-6-carboxamide]: the “% Activation” value on ΔF508-CFTR [1] (setting [3]) worked out at 433.9%; at ΔF508-CFTR [2] (setting [5]), 239.4%. Also, the EC50 on ΔF508-CFTR [1] (setting [4]) is 99.9 nM; on ΔF508-CFTR [2] (setting [6]), 145 nM.

On to `CS(=O)(=O)NC(=O)c1cc(N2CCN(CC(F)(F)F)CC2)c2c(C3CCC3)nn(-c3ccccc3)c2n1` [Compound 329, 3-cyclobutyl-N-(methanesulfonyl)-1-phenyl-4-[4-(2,2,2-trifluoroethyl)piperazin-1-yl]-1H-pyrazolo[3,4-b]pyridine-6-carboxamide], for which the “% Activation” value at ΔF508-CFTR [1] (setting [3]) was found to be 318.4%; on ΔF508-CFTR [2] (setting [5]), 163.85%. The results for the EC50 on ΔF508-CFTR [1] (setting [4]) and at ΔF508-CFTR [2] (setting [6]) were 777 nM and 158 nM, respectively.

As to `COCCS(=O)(=O)NC(=O)c1cc(N2CCN(CC(F)(F)F)CC2)c2c(C3CCC3)nn(-c3ccccc3)c2n1` [Compound 330, 3-cyclobutyl-N-(2-methoxyethanesulfonyl)-1-phenyl-4-[4-(2,2,2-trifluoroethyl)piperazin-1-yl]-1H-pyrazolo[3,4-b]pyridine-6-carboxamide], the entries for the “% Activation” value on ΔF508-CFTR [1] (setting [3]) and at ΔF508-CFTR [2] (setting [5]) were 285.4% and 133.1%, respectively. Besides, the EC50 came to 124 nM at ΔF508-CFTR [1] (setting [4]) and 213 nM on ΔF508-CFTR [2] (setting [6]).

`CC(C)c1nn(-c2ccnc(N3CCOCC3)c2)c2nc(C(=O)NS(C)(=O)=O)cc(OCC3CCOCC3)c12` [Compound 336, N-(methanesulfonyl)-1-[2-(morpholin-4-yl)pyridin-4-yl]-4-[(oxan-4-yl)methoxy]-3-(propan-2-yl)-1H-pyrazolo[3,4-b]pyridine-6-carboxamide]: the “% Activation” value is given as 232.42% on ΔF508-CFTR [1] (setting [3]) and 107.2% at ΔF508-CFTR [2] (setting [5]). Further, the half-maximal effective concentration (EC50) on ΔF508-CFTR [1] (setting [4]) was 282 nM; at ΔF508-CFTR [2] (setting [6]) it was 420 nM.

Turning to `CC(C)c1nn(-c2ccc(F)cc2)c2nc(C(=O)NS(C)(=O)=O)cc(N3CCNC(C(F)(F)F)C3)c12` (stereo not shown) [Compound 339, 1-(4-fluorophenyl)-N-(methanesulfonyl)-3-(propan-2-yl)-4-[3-(trifluoromethyl)piperazin-1-yl]-1H-pyrazolo[3,4-b]pyridine-6-carboxamide], the results for the “% Activation” value on ΔF508-CFTR [1] (setting [3]) and on ΔF508-CFTR [2] (setting [5]) were 295.5% and 142.05%, respectively. In addition, the EC50 amounted to 402 nM at ΔF508-CFTR [1] (setting [4]) and 1400 nM on ΔF508-CFTR [2] (setting [6]).

Consider `COCCOCC1(F)CCCN(c2cc(C(=O)NS(C)(=O)=O)nc3c2c(C(C)C)nn3-c2ccc(F)cc2)C1` (stereo not shown) [Compound 346, 4-{3-fluoro-3-[(2-methoxyethoxy)methyl]piperidin-1-yl}-1-(4-fluorophenyl)-N-(methanesulfonyl)-3-(propan-2-yl)-1H-pyrazolo[3,4-b]pyridine-6-carboxamide], for which the results for the “% Activation” value at ΔF508-CFTR [1] (setting [3]) and at ΔF508-CFTR [2] (setting [5]) were 375.1% and 195.8%, respectively. Further, the EC50 on ΔF508-CFTR [1] (setting [4]) was determined as 253 nM; at ΔF508-CFTR [2] (setting [6]) it was 308 nM.

Turning to `O=C(NS(=O)(=O)CCCN1CCOCC1)c1cc(OCC2CCOCC2)c2c(C3CCC3)nn(-c3ccccc3)c2n1` [Compound 347, 3-cyclobutyl-N-[3-(morpholin-4-yl)propane-1-sulfonyl]-4-[(oxan-4-yl)methoxy]-1-phenyl-1H-pyrazolo[3,4-b]pyridine-6-carboxamide], the EC50 on ΔF508-CFTR [1] was found to be 54.3 nM; at ΔF508-CFTR [2], 263 nM. For the same molecule, the figures for the “% Activation” value on ΔF508-CFTR [1] (setting [3]) and on ΔF508-CFTR [2] (setting [5]) were 301.15% and 131.4%, respectively.

For `CS(=O)(=O)NC(=O)c1cc(N2CCC[C@@H](CO)C2)c2c(C3CCC3)nn(-c3ccccc3)c2n1` [Compound 349, 3-cyclobutyl-4-[(3R)-3-(hydroxymethyl)piperidin-1-yl]-N-(methanesulfonyl)-1-phenyl-1H-pyrazolo[3,4-b]pyridine-6-carboxamide], the EC50 on ΔF508-CFTR [1] worked out at 424 nM; on ΔF508-CFTR [2], 512 nM. For the same molecule, the “% Activation” value on ΔF508-CFTR [1] (setting [3]) worked out at 327.9%; at ΔF508-CFTR [2] (setting [5]) it was 161.7%.

`O=C(NS(=O)(=O)CCCN1CCOCC1)c1cc(N2CCC[C@@H](CO)C2)c2c(C3CCC3)nn(-c3ccccc3)c2n1` [Compound 350, 3-cyclobutyl-4-[(3R)-3-(hydroxymethyl)piperidin-1-yl]-N-[3-(morpholin-4-yl)propane-1-sulfonyl]-1-phenyl-1H-pyrazolo[3,4-b]pyridine-6-carboxamide]: the 50% effective concentration (EC50) at ΔF508-CFTR [1] is 287 nM; on ΔF508-CFTR [2], 357 nM. The “% Activation” value was 274.6% at ΔF508-CFTR [1] (setting [3]) and 104.21% on ΔF508-CFTR [2] (setting [5]).

Turning to `O=C(NS(=O)(=O)N1CCC(N2CCCC2)CC1)c1cc(OCC2CCOCC2)c2c(C3CCC3)nn(-c3ccccc3)c2n1` [Compound 351, 3-cyclobutyl-4-[(oxan-4-yl)methoxy]-1-phenyl-N-[4-(pyrrolidin-1-yl)piperidine-1-sulfonyl]-1H-pyrazolo[3,4-b]pyridine-6-carboxamide], the “% Activation” value at ΔF508-CFTR [1] (setting [3]) was found to be 232.5%; at ΔF508-CFTR [2] (setting [5]), 50.87%. In addition, the values for the EC50 at ΔF508-CFTR [1] (setting [4]) and at ΔF508-CFTR [2] (setting [6]) were 81.1 nM and 73.5 nM, respectively.

For `CN1CCN(C(=O)[C@@H]2CCCN2S(=O)(=O)NC(=O)c2cc(OCC3CCOCC3)c3c(C4CCC4)nn(-c4ccccc4)c3n2)CC1` [Compound 352, 3-cyclobutyl-N-[(2S)-2-(4-methylpiperazine-1-carbonyl)pyrrolidine-1-sulfonyl]-4-[(oxan-4-yl)methoxy]-1-phenyl-1H-pyrazolo[3,4-b]pyridine-6-carboxamide], the results for the “% Activation” value at ΔF508-CFTR [1] (setting [3]) and on ΔF508-CFTR [2] (setting [5]) were 158.4% and 27.44%, respectively. For the same molecule, the values for the concentration giving a half-maximal response (EC50) at ΔF508-CFTR [1] (setting [4]) and at ΔF508-CFTR [2] (setting [6]) were 2780 nM and 5000 nM, respectively.

Turning to `O=C(NS(=O)(=O)N1CCC(N2CCCCC2)CC1)c1cc(OCC2CCOCC2)c2c(C3CCC3)nn(-c3ccccc3)c2n1` [Compound 353, N-([1,4'-bipiperidine]-1'-sulfonyl)-3-cyclobutyl-4-[(oxan-4-yl)methoxy]-1-phenyl-1H-pyrazolo[3,4-b]pyridine-6-carboxamide], the figures for the “% Activation” value at ΔF508-CFTR [1] (setting [3]) and at ΔF508-CFTR [2] (setting [5]) were 193.45% and 56.22%, respectively. Further, the EC50 at ΔF508-CFTR [1] (setting [4]) amounted to 346 nM; at ΔF508-CFTR [2] (setting [6]), 87.9 nM.

On to `CCCN(C)S(=O)(=O)NC(=O)c1cc(OCC2CCOCC2)c2c(C3CCC3)nn(-c3ccccc3)c2n1` [Compound 354, 3-cyclobutyl-N-[methyl(propyl)sulfamoyl]-4-[(oxan-4-yl)methoxy]-1-phenyl-1H-pyrazolo[3,4-b]pyridine-6-carboxamide], for which the “% Activation” value at ΔF508-CFTR [1] (setting [3]) is reported as 351%; on ΔF508-CFTR [2] (setting [5]), 113.7%. Further, the EC50 was determined as 232 nM at ΔF508-CFTR [1] (setting [4]) and 123 nM at ΔF508-CFTR [2] (setting [6]).

Consider `CCCN(CC)S(=O)(=O)NC(=O)c1cc(OCC2CCOCC2)c2c(C3CCC3)nn(-c3ccccc3)c2n1` [Compound 355, 3-cyclobutyl-N-[ethyl(propyl)sulfamoyl]-4-[(oxan-4-yl)methoxy]-1-phenyl-1H-pyrazolo[3,4-b]pyridine-6-carboxamide], for which the “% Activation” value is given as 278.4% at ΔF508-CFTR [1] (setting [3]) and 102.4% on ΔF508-CFTR [2] (setting [5]). Moreover, the EC50 was determined as 377 nM on ΔF508-CFTR [1] (setting [4]) and 161 nM at ΔF508-CFTR [2] (setting [6]).

For the molecule `CCOC(=O)N1CCC(NS(=O)(=O)NC(=O)c2cc(OCC3CCOCC3)c3c(C4CCC4)nn(-c4ccccc4)c3n2)CC1` [Compound 356, ethyl 4-[({3-cyclobutyl-4-[(oxan-4-yl)methoxy]-1-phenyl-1H-pyrazolo[3,4-b]pyridine-6-carbonyl}sulfamoyl)amino]piperidine-1-carboxylate], the “% Activation” value at ΔF508-CFTR [1] (setting [3]) is recorded as 372%; at ΔF508-CFTR [2] (setting [5]), 188.25%. The EC50 is 48.3 nM at ΔF508-CFTR [1] (setting [4]) and 105 nM at ΔF508-CFTR [2] (setting [6]).
